Results: ChEMBL document CHEMBL5365428, “Alkyne as a Latent Warhead to Covalently Target SARS-CoV-2 Main Protease” (J Med Chem, 2023)
The source made the active and inactive calls. The rule behind the calls is not given here.

System: Replicase polyprotein 1ab (Severe acute respiratory syndrome coronavirus 2), P0DTD1 [C145A]
Test: Binding affinity to recombinant hexa-His tagged SARS-COV2 main protease C145A mutant expressed in HEK293T cells by in-gel fluorescence analysis
Assay type: cell-based

C#CC[C@H](NC(=O)C(F)(F)F)C(=O)N1C[C@H]2[C@@H]([C@H]1C(=O)N[C@H](C#C)C[C@@H]1CCNC1=O)C2(C)C
Activity: inactive
